Measured values as given in patent US20250387462A1, “LIPID NANOPARTICLES FOR […] OF NUCLEIC ACIDS AND VACCINE FOR THE PREVENTION OF TU[…] OTHER MYCOBACTERIAL INFECTIONS” (priority 2024, published 2025).

How the values were obtained:
[1] = Apparent solubility of phosphatidylserine salts in ethanol (shake flask); type: physicochemical; settings: 21 °C, organic solvent or mixture, thermodynamic from solid, 100% ethanol, room temperature, average±SD (N=3)
Protocol: Apparent solubilities of phosphatidylserine salts in ethanol were determined by shake flask technique. Sodium and ammonium salts of phosphatidylserines in the powder form were obtained from Avanti Polar Lipids (Alabama, USA). Aliquots of phosphatidylserine salt powder were placed in 12×75 borosilicate glass tubes in triplicate. Three mL of 200 proof ethanol (catalog number E-7023, MilliporeSigma, USA) were added, the tubes were closed with polyethylene snap caps, agitated using vortex mixer for 10-15 s to obtain uniform suspensions, and placed in a horizontal position on a rocking platform at room temperature (20-22° C.) overnight. The ambient temperature at the end of incubation was 20.4-20.9° C. After 24 hours incubation, the suspensions were visually checked for the presence of a solid phase, allowed to settle under gravity, and the supernatant solutions were passed through a 0.2-μm PTFE syringe membrane filters. The first 0.5 ml of the filtrate was discarded, the next 1 ml was collected, and phosphatidylserine in the filtrates was quantified by phospholipid phosphate assay as follows: 20 μL aliquots of the filtrate were taken in triplicate into glass tubes, ethanol was evaporated in a stream of argon at 70° C., and the residue was digested in a mixture of 60 μL concentrated sulfuric acid and 20 μL 30% hydrogen peroxide for 10 min at 180-190° C. The digested samples were diluted with 1 mL of deionized water, 20 μL of 10% sodium sulfite was added to destroy any residual peroxide, and the samples were incubated on a boiling water bath for 15 min to hydrolyze any condensed phosphate species. The samples were chilled down to room temperature, mixed with 0.2 mL of 2% (w/w) ammonium molybdate solution and 20 μL of 10% (w/w) ascorbic acid solution, incubated on a boiling water bath for 10 min, and chilled down in a water bath at room temperature. The phosphate concentration was determined from the optical density of the formed blue phosphomolybdic acid at 825 nm using five-point standard curve from concurrently run standards prepared from the NIST-traceable commercial phosphate standard solution diluted to cover the range of 0-2 mM phosphate (coefficient of determination R^2>0.9999). Solubility of phosphatidylserine salts was expressed in molarity units of phosphatidylserine (Table 28). The data are average±SD (N=3).

[2] = tested on: Mtb-specific CD4 and CD8 T cells; assay: Mtb antigen-specific splenic CD4 and CD8 T cell responses after mRNA-LNP vaccination of CB6F1 or B6C3F1 mice (peptide pool stimulation, intracellular cytokines); type: in vivo; settings: 1 ug or 0.2 ug i.m., boost 5 weeks, 8 days later, lipid in DPPS-targeted LNP
[3] = In vivo metabolism of ionizable lipid after intramuscular injection
Source text: We have observed that in vivo metabolism of the KC3-OA lipids after intramuscular injection is slow. This is not unexpected because there are no ester linkages in the lipid tail that would allow for the release of the lipid head group and subsequent clearance from the body. We have identified multiple biodegradable ICLs that differ in the length of the lipid tail, the location and orientation of the ester linkage, and the inclusion of a double bond in the lipid tail.

MutuDC1940 cells = assay: mCherry mRNA transfection efficiency of LNPs in murine dendritic cells (flow cytometry); type: cell-based; settings: lipid in LNPs, even in the presence of DPPS targeting lipid
Protocol: • 1. MutuDC1940 cells (Applied Biological Materials, T0528) were grown according to supplier's instructions in T75 flasks. They were plated at 180,000 cells/well into 24-well plate one day prior to transfection. • 2. LNPs were added in triplicate to each well at the desired mRNA concentration (e.g. 1 μg/mL) in 1 mL media and after 24 h the cells were washed once with DPBS (VWR 02-0119-1000). • 3. 0.2 mL of DPBS (plus 5 mM EDTA, pH 7.4) was then added to facilitate detachment. • 4. The cells were placed at 37° C. for 3 min, until detached. • 5. 0.5 ml DPBS added to each well and the liquid transferred to a flow cytometry tube (Falcon 5 mL #352054). • 6. The tube was centrifuged at 1100 rpm for 3-5 min and the liquid poured off. • 7. 100 μL of Zombie Violet (Biolegend) (diluted 1:500 in PBS) was added to each tube. • 8. The tubes were gently tapped to resuspend cells and placed in the dark for 15 min at RT. • 9. […]
Cells suspensions were analyzed by an Attune NXT flow cytometer using the VL1 and YL2 for live/dead and mCherry fluorescence signals respectively. […]
The aim of this study was to explore the effect of different KC2 and KC3 ICLs on transfection efficiency in murine dendritic cells. […] Two other variants evaluated have monounsaturated alkyl chains with KC3-OA being 18 carbons in length and KC3C17(8:1) having 17 carbons. […]

SMILES	solubility at 24 h [1] [mM]	further results
CCCCCCCCCCCCCCCCCC(=O)OC[C@H](COP(=O)(O)OC[C@H](N)C(=O)[O-])OC(=O)CCCCCCCCCCCCCCCCC.[Na+] [DSPS sodium]	0.111 ± 0.009	
CC(C)CCCC(C)CCCC(C)CCOC(=O)CCCCCCCC1(CCCCCCCC(=O)OCCC(C)CCCC(C)CCCC(C)C)OCC(CCCN(C)C)O1 (stereo not shown) [KC3-X1-PH5]		CD4 and CD8 T cell magnitude compared to KC3-OA [2]: statistically performed better than KC3-OA
CCCCCCCC/C=C\CCCCCCCCC1(CCCCCCCC/C=C\CCCCCCCC)OC[C@H](CCCN(C)C)O1 [KC3-OA, 3-((S)-2,2-di((Z)-octadec-9-en-1-yl)-1,3-dioxolan-4-yl)-N,N-dimethylpropan-1-amine]		in vivo metabolism after intramuscular injection [3]: slow
CCCCCCCCCCCCCCCCCC1(CCCCCCCCCCCCCCCCC)OC[C@H](CCCN(C)C)O1 [KC3-17, (S)-3-(2,2-diheptadecyl-1,3-dioxolan-4-yl)-N,N-dimethylpropan-1-amine]		transfection activity in murine dendritic cells (in words) (MutuDC1940 cells): completely inactive
CCCCCCCCCCCCCCCC(=O)OC[C@H](COP(=O)(O)OC[C@H](N)C(=O)O)OC(=O)CCCCCCCCCCCCCCC.N [DPPS ammonium]	0.865 ± 0.06	
CCCCCCCCCCCCCCCCCC(=O)OC[C@H](COP(=O)(O)OC[C@H](N)C(=O)O)OC(=O)CCCCCCCCCCCCCCCCC.N [DSPS ammonium]	0.034 ± 0.004	
CCCCCCCCCCCCCCCC(=O)OC[C@H](COP(=O)(O)OC[C@H](N)C(=O)[O-])OC(=O)CCCCCCCCCCCCCCC.[Na+] [DPPS sodium]	0.201 ± 0.004	
